Reference: patent US20160304957A1, “TREATMENT AND MODULATION OF GENE EXPRESSION AND SKIN AGING” (DSM NUTRITIONAL PRODUCTS LTD., priority 2006, published 2016)

What was measured:
integrinα6 = assay: QRT-PCR confirmation of gene regulation in HaCaT cells; assay type: cell-based, human; conditions: β-carotene, unirradiated cells
Experimental: (§1) FIGS. 9A-9C show β-carotene-induced inhibition of integrinα6 transcription in irradiated and unirradiated HaCaT cells (FIG. 9A) and enhancement of UVA-induced GADD34 (FIG. 9B) and GADD153 transcription (FIG. 9C). Cells were supplemented with β-carotene for 2 days prior to UVA irradiation (270 kJ/m^2) either in normal PBS or D2O-PBS. Gene expression 5 hours after irradiation was determined by quantitative real time polymerase chain reaction. (“QRT-PCR”). Values are geometric mean±standard error of three experiments.
(§2) Key gene regulation was confirmed in three independent cell irradiation experiments using TaqMan® QRT-PCR as described. In these experiments, cells were pretreated with 0.5, 1.5, or 3 μM β-carotene, to analyze for dose-dependent β-carotene effects. In addition, cells were irradiated either in D2O-containing PBS or in H2O-containing PBS, to analyze for the ^1O2 inducibility of genes.

GADD34 = assay: as above; assay type: cell-based, human; conditions: 5 hours after UVA
Experimental: as §1, §2

GADD153 = assay: as above; assay type: cell-based, human; conditions: 5 hours after UVA
Experimental: as §1, §2

[1] = tested on: retinoic acid response elements (RAREs); assay: RA-dependent reporter gene assay pGL3 (RARE)5 tk luc in HaCaT cells; assay type: cell-based, human
Experimental: HaCaT cells were transiently transfected with the reporter construct pGL3 (RARE)5 tk luc, containing five DR5-type retinoic acid response elements (“RAREs”). Luciferase activity was determined after 40 hours treatment with β-carotene. Values are means±standard error from two experiments with four replicates each.
HaCaT cells were seeded at a density of 3×10^6 cells/well in 6 well plates (BD Biosciences, Basel, Switzerland) in FAD medium containing 2% NuSerum. The cells were transfected the next day using 1 μg reporter plasmid (pGL3 (RARE)5 tk luc) and 5 μl Lipofectin (1 μg/μL; Invitrogen, Basel, Switzerland) per well. The RARE is a DR5 element identical to the wild type element of the RARβ2 promoter. The spacing between the DR5 sites is 25 nucleotides. The transfections were performed for 7.5 hours in serum-free FAD medium according to the manufacturer's protocol. […] Transactivation of the reporter gene was determined after 40 hours of β-carotene treatment.
To generate the RA standard curve, 9-cis RA and all-trans RA were used together at concentrations ranging from 10^−10 to 10^−8 M each. […] Relative luciferase units (RLU) were quantified in a luminoskan reader (Thermo Labsystems, Vantaa, Finland), and corrected by protein concentrations as determined with the BCA assay (Pierce, Rockford, USA).

HaCaT cells = tested on: HaCaT cells
Excerpt: HaCaT cells were obtained from Prof. Fusenig, German Cancer Research Centre, Heidelberg. To gather cells more representative for the upper epidermal layer, we cloned the original cells by endpoint dilution. […] Cytokeratins were detected using anti-cytokeratin clones AE1/AE3 (Boehringer Mannheim, Germany) and anti-cytokeratin 1,10 antibody (Biogenesis Ltd., Poole, UK), respectively. […] Cells were propagated in FAD medium (DMEM/HAM's F12 3:1, Invitrogen); 5% NuSerum IV culture supplement and Miton™ 1:1000 (both Becton Dickinson, Bedford, Mass., USA). On day 0 of the experiment, cells were seeded at 2×10^5 cells per 60 mm dish. Cells were counted using a Coulter Multisizer (IG Instrumenten Gesellschaft, Zurich, Switzerland). […] On days 1 and 2, the media were replaced with fresh β-carotene-containing FAD medium without phenol red; 2% NuSerum; penicillin/streptomycin.
β-Carotene stock solutions and β-carotene-containing media were prepared under reduced light conditions. All-E-β-carotene was synthesized by DSM Nutritional Products (Kaiseraugst, Switzerland). β-carotene was dissolved in tetrahydrofurane (THF containing 0.025% butyl hydroxytoluol; Fluka Chemie A G, Buchs, Switzerland). Immediately before preparing the β-carotene stock solution, THF was purified over a basic aluminum oxide grade 1 (Camag, Muttenz, Switzerland) column. The n-carotene stock solution was prepared fresh for each experiment, and stored under argon at −20° C. until use. To prepare β-carotene-containing medium, the β-carotene stock solution was first diluted 1:1 with ethanol. This β-carotene/solvent mixture was then added to the cell culture medium to give a final concentration of 0.5, 1.5, or 3 μM β-carotene. β-carotene-containing medium was prepared fresh for the daily medium changes. The solvent concentration in the medium was kept constant at 0.5% for all treatment conditions.
All extraction and analytical procedures were carried out in brown glass, and under reduced light conditions. Acetonitrile, tert-butylmethylether, acetone and ethanol p. a. were from E. Merck K G (Darmstadt, Germany). Ammonium acetate p.a., butylated hydroxy toluene p.a., tetrahydrofuran p.a., triethylamine p.a., were from Fluka Chemie A G (Buchs, Switzerland). HPLC grade solvents for stock solutions, dilutions, and sample solvent mixtures were additionally purified over basic aluminum oxide grade 1 (Camag, Muttenz, Switzerland). To determine the β-carotene content of cells, the cell layer was washed 5 times with PBS/2% BSA. The cells were detached by trypsin/EDTA 0.05/0.02% and centrifuged at 10,000×g for 1 minute Cell pellets were lysed with acetone containing 0.025% BHT (v/w), vortex-mixed and dried in a speed-vac. The dried residue was extracted with ethanol/tBME/THF, 9:5:1, containing 0.025% of BHT (v/w) by vigorous vortex-mixing for one minute, and centrifugation for 3 minutes at 10,000×g. An aliquot of the clear supernatant was injected into the HPLC system. Cell culture medium was directly extracted with the solvent mixture described above, and the extract was treated as described for the cell pellets.
The HPLC system consisted of a 520 pump, a 565 autosampler cooled at 6° C., a 540+ diode array detector, a SDU 2003 solvent degasser unit and the Chroma 3000 data analysis system from Bio-Tek Instruments (Basel, Switzerland). A Vydac 218TP54 column (250×4.5 mm i.d., 300 angstrom pore wide) from the Separation Group (Hesperia, USA) was used for separation.

CC1=C(/C=C/C(C)=C/C=C/C(C)=C/C=C/C=C(C)/C=C/C=C(C)/C=C/C2=C(C)CCCC2(C)C)C(C)(C)CCC1 [β-carotene, All-E-β-carotene]
integrinα6 transcription (integrinα6): downregulation
UVA-induced GADD34 transcription (GADD34): enhancement
UVA-induced GADD153 transcription (GADD153): enhancement
activation of the luciferase reporter ([1]; 1 or 3 μM β-carotene, 40 hours): comparable to what was achieved after treating the cells with a combination of all-trans RA and 9-cis RA at 10 nM each
RARE-dependent gene activation after UVA irradiation, relative to unirradiated ([1]; cells irradiated with UVA prior to measurement): about 70%
Retinol cellular content (HaCaT cells): <LOD
Retinyl Palmitate cellular content (HaCaT cells): <LOD
cellular β-carotene content relative to 72 hours (HaCaT cells): about half
retinol or retinyl esters formed from β-carotene (HaCaT cells): do not produce detectable amounts
time of peak cellular β-carotene concentration (HaCaT cells): 72 h
